Laboratory results reported in US9451774B2, “Paddy rice seed treated by herbicidal composition and method for controlling weed” (MITSUI CHEMICALS AGRO, INC., priority 2013, dated 2016).

What was measured:
Lindernia procumbens [1] = experiment: Test Example 5: pot test, herbicide-treated seed, growth inhibition; format: in vivo; details: 20 days after sowing, dosage a.i. g per 1 kg of seeds: Sulcotrione 1.0, Imazosulfuron 1.0, Oxadiargyl 0.15
Description: (§3) In 100 cm^2 of a pot was filled a paddy field soil, and after paddling, seeds of Lindernia procumbens and Scirpus juncoides Roxb. were sown and mixed into the surface layer of the soil. Paddy rice seeds (variety: Nipponbare) sprouted into a pigeon breast shape were dust-coated with a predetermined amount of wettable powder each prepared according to Preparation examples 3, 4 and 8, and were sown onto the surface of the soil or into the soil (depth: 1 cm) at an amount of 10 grains/pot. After the sowing, water was introduced quietly and flooded up to 1 cm. After 20 days from the sowing, a growth inhibition rate was judged according to the following judgement criteria.

Scirpus juncoides Roxb. [2] = experiment: as above; format: in vivo; details: 20 days after sowing, dosage a.i. g per 1 kg of seeds: Sulcotrione 1.0, Imazosulfuron 1.0, Oxadiargyl 0.15
Description: as §3

[3] = test system: Paddy rice (variety: Koshihikari); experiment: Test Example 2: pot test, iron powder-coated seed, growth inhibition of the paddy rice; format: in vivo; details: surface sowing, 21 days after sowing, dosage a.i. g per 1 kg of seeds: Pyrazolate 150, Compound (I) 38, Sulcotrione 1.0, Imazosulfuron 1.0
Description: (§1) Also, paddy rice seeds (variety: Koshihikari) dipped in 20° C. of water for 2 days were dust-coated with a mixture of iron powder and calcined gypsum (a mixing ratio of 10:1) with an amount of 100 g per 1 kg of the seeds (dried unhulled rice) to prepare iron powder-coated seeds.

Monochoria vaginalis [4] = experiment: Test Example 2: pot test, iron powder-coated herbicide-treated seed, growth inhibition; format: in vivo; details: surface sowing, 21 days after sowing, dosage a.i. g per 1 kg of seeds: Pyrazolate 150, Compound (I) 38, Sulcotrione 1.0, Imazosulfuron 1.0
Description: as §1

Lindernia procumbens [5] = experiment: as above; format: in vivo; details: surface sowing, 21 days after sowing, dosage a.i. g per 1 kg of seeds: Pyrazolate 150, Compound (I) 38, Sulcotrione 1.0, Imazosulfuron 1.0
Description: as §1

[6] = test system: Paddy rice (variety: Nipponbare); experiment: Test Example 5: pot test, growth inhibition of the paddy rice; format: in vivo; details: 20 days after sowing, dosage a.i. g per 1 kg of seeds: Sulcotrione 1.0, Imazosulfuron 1.0, Oxadiargyl 0.15
Description: as §3

[7] = test system: Paddy rice (variety: Koshihikari); experiment: Test Example 3: pot test, iron powder-coated seed, growth inhibition of the paddy rice; format: in vivo; details: surface sowing, 22 days after sowing, dosage a.i. g per 1 kg of seeds: Pyrimisulfan 0.5, Pyriminobac-methyl 1.5
Description: as §1

[8] = test system: Paddy rice (variety: Nipponbare); experiment: Test Example 6: pot test, growth inhibition of the paddy rice; format: in vivo; details: 20 days after sowing, dosage a.i. g per 1 kg of seeds: Pyrimisulfan 0.5, Pyriminobac-methyl 1.5, Butachlor 1.25
Description: (§4) In 100 cm^2 of a pot was filled a paddy field soil, and after paddling, seeds of Echinochloa oryzicola and Scirpus juncoides Roxb. were sown and mixed into the surface layer of the soil. Paddy rice seeds (variety: Nipponbare) sprouted into a pigeon breast shape were dust-coated with a predetermined amount of wettable powder each prepared according to Preparation examples 5, 6 and 9, and were sown onto the surface of the soil or into the soil (depth: 1 cm) at an amount of 10 grains/pot. After the sowing, water was introduced quietly and flooded up to 1 cm. After 20 days from the sowing, a growth inhibition rate was judged according to the above-mentioned judgement criteria.

Echinochloa oryzicola [9] = experiment: Test Example 6: pot test, herbicide-treated seed, growth inhibition; format: in vivo; details: 20 days after sowing, dosage a.i. g per 1 kg of seeds: Pyrimisulfan 0.5, Pyriminobac-methyl 1.5, Butachlor 1.25
Description: as §4

Scirpus juncoides Roxb. [10] = experiment: as above; format: in vivo; details: 20 days after sowing, dosage a.i. g per 1 kg of seeds: Pyrimisulfan 0.5, Pyriminobac-methyl 1.5, Butachlor 1.25
Description: as §4

Echinochloa oryzicola [11] = experiment: Test Example 3: pot test, iron powder-coated herbicide-treated seed, growth inhibition; format: in vivo; details: surface sowing, 22 days after sowing, dosage a.i. g per 1 kg of seeds: Pyrimisulfan 0.5, Pyriminobac-methyl 1.5
Description: as §1

Scirpus juncoides Roxb. [12] = experiment: as above; format: in vivo; details: surface sowing, 22 days after sowing, dosage a.i. g per 1 kg of seeds: Pyrimisulfan 0.5, Pyriminobac-methyl 1.5
Description: as §1

Monochoria vaginalis [13] = experiment: Test Example 10: pot test, seed treated with herbicide with or without dymron, growth inhibition; format: in vivo; details: Surface sowing; 20 days after sowing; dosage a.i. g per 1 kg of seeds: Pyrimisulfan + Dymron 1 + 40, Pyrimisulfan 1
Excerpt: (§2) In 100 cm^2 of a pot was filled a paddy field soil, and after paddling, seeds of Monochoria vaginalis and Lindernia procumbens were sown and mixed into the surface layer of the soil. Paddy rice seeds (variety: Nipponbare) sprouted into a pigeon breast shape were dust-coated with a predetermined amount of wettable powder each prepared according to Preparation examples 5 and 11, and were sown onto the surface of the soil at an amount of 10 grains/pot. After the sowing, water was introduced quietly and flooded up to 1 cm. After 20 days from the sowing, a growth inhibition rate was judged according to the above-mentioned judgement criteria.

Lindernia procumbens [14] = experiment: as above; format: in vivo; details: Surface sowing; 20 days after sowing; dosage a.i. g per 1 kg of seeds: Pyrimisulfan + Dymron 1 + 40, Pyrimisulfan 1
Excerpt: as §2

[15] = test system: paddy rice varieties Habataki, Takanari, Momiroman, Mizuhochikara, Ruriaoba and Odorokimochi; details: Japanese Journal of Crop Science 79 (Extra 1); cited from earlier work
Echinochloa oryzicola [16] = experiment: Test Example 7: pot test, seed dust-coated with COMMAND3ME, growth inhibition; format: in vivo; details: Surface sowing; 21 days after sowing; dosage 2.5 a.i. g per 1 kg of seeds (as COMMAND3ME)
Description: In 100 cm^2 of a pot was filled a paddy field soil, and after paddling, seeds of Echinochloa oryzicola was sown and mixed into the surface layer of the soil. Paddy rice seeds (variety: Nipponbare) sprouted into a pigeon breast shape were dust-coated with a predetermined amount of COMMAND3ME™ (clomazone: 31.4%, available from FMC Corporation), and were sown onto the surface of the soil at an amount of 10 grains/pot. After the sowing, water was introduced quietly and flooded up to 1 cm. After 21 days from the sowing, a growth inhibition rate was judged according to the above-mentioned judgement criteria.

[17] = test system: Paddy rice (variety: Nipponbare); experiment: Test Example 1: pot test, growth inhibition (chemical damage) of the paddy rice; format: in vivo; details: 30 days after sowing, dosage a.i. g per 1 kg of seeds: Pyrazolate 150, Compound (I) 37.5, Thenylchlor 0.63
Excerpt: as §2, with “Preparation examples 1, 2 and 7,” for “Preparation examples 5 and 11,”, “2 and 7, and were” for “5 and 11, and were”, “the soil or into the soil (depth: 1 cm) at an” for “the soil at an”, “cm. After 30 days from” for “cm. After 20 days from”, “to the following judgement criteria.” for “to the above-mentioned judgement criteria.”

Monochoria vaginalis [18] = experiment: Test Example 1: pot test, herbicide-treated paddy rice seed, growth inhibition; format: in vivo; details: 30 days after sowing, dosage a.i. g per 1 kg of seeds: Pyrazolate 150, Compound (I) 37.5, Thenylchlor 0.63
Excerpt: as §2, with “Preparation examples 1, 2 and 7,” for “Preparation examples 5 and 11,”, “2 and 7, and were” for “5 and 11, and were”, “the soil or into the soil (depth: 1 cm) at an” for “the soil at an”, “cm. After 30 days from” for “cm. After 20 days from”, “to the following judgement criteria.” for “to the above-mentioned judgement criteria.”

Lindernia procumbens [19] = experiment: as above; format: in vivo; details: 30 days after sowing, dosage a.i. g per 1 kg of seeds: Pyrazolate 150, Compound (I) 37.5, Thenylchlor 0.63
Excerpt: as §2, with “Preparation examples 1, 2 and 7,” for “Preparation examples 5 and 11,”, “2 and 7, and were” for “5 and 11, and were”, “the soil or into the soil (depth: 1 cm) at an” for “the soil at an”, “cm. After 30 days from” for “cm. After 20 days from”, “to the following judgement criteria.” for “to the above-mentioned judgement criteria.”

[20] = Surface sowing of treated rice seed

Compound: oxadiargyl
- Growth inhibition rate, Lindernia procumbens (Lindernia procumbens [1]; Sowing into soil (depth 1 cm)): 10 (Growth inhibition rate of 91 to 100%)
- Growth inhibition rate, Lindernia procumbens (Lindernia procumbens [1]; Surface sowing): 10 (Growth inhibition rate of 91 to 100%)
- Growth inhibition rate, Scirpus juncoides Roxb. (Scirpus juncoides Roxb. [2]; Sowing into soil (depth 1 cm)): 1 (Growth inhibition rate of 10 to 18%)
- Growth inhibition rate, Scirpus juncoides Roxb. (Scirpus juncoides Roxb. [2]; Surface sowing): 2 (Growth inhibition rate of 19 to 27%)

Compound: CS(=O)(=O)c1ccc(C(=O)C2C(=O)CCCC2=O)c(Cl)c1 [Sulcotrione, sulcotrione]
- Growth inhibition rate, Lindernia procumbens (Lindernia procumbens [1]; Sowing into soil (depth 1 cm)): 10 (Growth inhibition rate of 91 to 100%)
- Growth inhibition rate, Lindernia procumbens (Lindernia procumbens [1]; Surface sowing): 10 (Growth inhibition rate of 91 to 100%)
- Growth inhibition rate, Paddy rice [3]: 0 (Growth inhibition rate of 0 to 9%)
- Growth inhibition rate, Monochoria vaginalis (Monochoria vaginalis [4]): 10 (Growth inhibition rate of 91 to 100%)
- Growth inhibition rate, Lindernia procumbens (Lindernia procumbens [5]): 10 (Growth inhibition rate of 91 to 100%)
- Growth inhibition rate, Paddy rice ([6]; Sowing into soil (depth 1 cm)): 3 (Growth inhibition rate of 28 to 36%)
- Growth inhibition rate, Paddy rice ([6]; Surface sowing): 0 (Growth inhibition rate of 0 to 9%)
- Growth inhibition rate, Scirpus juncoides Roxb. (Scirpus juncoides Roxb. [2]; Sowing into soil (depth 1 cm)): 8 (Growth inhibition rate of 73 to 81%)
- Growth inhibition rate, Scirpus juncoides Roxb. (Scirpus juncoides Roxb. [2]; Surface sowing): 9 (Growth inhibition rate of 82 to 90%)

Compound: CO/N=C(/C)c1cccc(Oc2nc(OC)cc(OC)n2)c1C(=O)OC [Pyriminobac-methyl, pyriminobac-methyl]
- Growth inhibition rate, Paddy rice [7]: 0 (Growth inhibition rate of 0 to 9%)
- Growth inhibition rate, Paddy rice ([8]; Sowing into soil (depth 1 cm)): 3 (Growth inhibition rate of 28 to 36%)
- Growth inhibition rate, Paddy rice ([8]; Surface sowing): 0 (Growth inhibition rate of 0 to 9%)
- Growth inhibition rate, Echinochloa oryzicola (Echinochloa oryzicola [9]; Sowing into soil (depth 1 cm)): 10 (Growth inhibition rate of 91 to 100%)
- Growth inhibition rate, Echinochloa oryzicola (Echinochloa oryzicola [9]; Surface sowing): 10 (Growth inhibition rate of 91 to 100%)
- Growth inhibition rate, Scirpus juncoides Roxb. (Scirpus juncoides Roxb. [10]; Sowing into soil (depth 1 cm)): 0 (Growth inhibition rate of 0 to 9%)
- Growth inhibition rate, Scirpus juncoides Roxb. (Scirpus juncoides Roxb. [10]; Surface sowing): 0 (Growth inhibition rate of 0 to 9%)
- Growth inhibition rate, Echinochloa oryzicola (Echinochloa oryzicola [11]): 10 (Growth inhibition rate of 91 to 100%)
- Growth inhibition rate, Scirpus juncoides Roxb. (Scirpus juncoides Roxb. [12]): 0 (Growth inhibition rate of 0 to 9%)

Compound: COCc1cccc(C(O)c2nc(OC)cc(OC)n2)c1NS(=O)(=O)C(F)F (stereo not shown) [Pyrimisulfan, pyrimisulfan]
- Growth inhibition rate, Echinochloa oryzicola (Echinochloa oryzicola [9]; Sowing into soil (depth 1 cm)): 8 (Growth inhibition rate of 73 to 81%)
- Growth inhibition rate, Echinochloa oryzicola (Echinochloa oryzicola [9]; Surface sowing): 10 (Growth inhibition rate of 91 to 100%)
- Growth inhibition rate, Scirpus juncoides Roxb. (Scirpus juncoides Roxb. [10]; Sowing into soil (depth 1 cm)): 10 (Growth inhibition rate of 91 to 100%)
- Growth inhibition rate, Scirpus juncoides Roxb. (Scirpus juncoides Roxb. [10]; Surface sowing): 10 (Growth inhibition rate of 91 to 100%)
- Growth inhibition rate, Monochoria vaginalis (Monochoria vaginalis [13]): 10 (Growth inhibition rate of 91 to 100%)
- Growth inhibition rate, Lindernia procumbens (Lindernia procumbens [14]): 10 (Growth inhibition rate of 91 to 100%)
- Growth inhibition rate, Echinochloa oryzicola (Echinochloa oryzicola [11]): 10 (Growth inhibition rate of 91 to 100%)
- Growth inhibition rate, Scirpus juncoides Roxb. (Scirpus juncoides Roxb. [12]): 10 (Growth inhibition rate of 91 to 100%)

Compound: CCCCOCN(C(=O)CCl)c1c(CC)cccc1CC [Butachlor, butachlor]
- Growth inhibition rate, Echinochloa oryzicola (Echinochloa oryzicola [9]; Sowing into soil (depth 1 cm)): 5 (Growth inhibition rate of 46 to 54%)
- Growth inhibition rate, Echinochloa oryzicola (Echinochloa oryzicola [9]; Surface sowing): 7 (Growth inhibition rate of 64 to 72%)
- Growth inhibition rate, Scirpus juncoides Roxb. (Scirpus juncoides Roxb. [10]; Sowing into soil (depth 1 cm)): 0 (Growth inhibition rate of 0 to 9%)
- Growth inhibition rate, Scirpus juncoides Roxb. (Scirpus juncoides Roxb. [10]; Surface sowing): 0 (Growth inhibition rate of 0 to 9%)

Compound: CS(=O)(=O)c1ccc(C(=O)C2=C(Sc3ccccc3)C3CCC(C3)C2=O)c(Cl)c1 (stereo not shown) [benzobicyclon]
- Sensitivity of paddy rice variety to the herbicide [15]: show sensitivity

Compound: CC1(C)CON(Cc2ccccc2Cl)C1=O [Clomazone, clomazone]
- Growth inhibition rate, Echinochloa oryzicola (Echinochloa oryzicola [16]): 9 (Growth inhibition rate of 82 to 90%)

Compound: COc1ccsc1CN(C(=O)CCl)c1c(C)cccc1C [Thenylchlor, thenylchlor]
- Growth inhibition rate, Paddy rice ([17]; Sowing into soil (depth 1 cm)): 9 (Growth inhibition rate of 82 to 90%)
- Growth inhibition rate, Paddy rice ([17]; Surface sowing): 6 (Growth inhibition rate of 55 to 63%)
- Growth inhibition rate, Monochoria vaginalis (Monochoria vaginalis [18]; Sowing into soil (depth 1 cm)): 6 (Growth inhibition rate of 55 to 63%)
- Growth inhibition rate, Monochoria vaginalis (Monochoria vaginalis [18]; [20]): 7 (Growth inhibition rate of 64 to 72%)
- Growth inhibition rate, Lindernia procumbens (Lindernia procumbens [19]; Sowing into soil (depth 1 cm)): 8 (Growth inhibition rate of 73 to 81%)
- Growth inhibition rate, Lindernia procumbens (Lindernia procumbens [19]; [20]): 9 (Growth inhibition rate of 82 to 90%)

Compound: CS(=O)(=O)c1ccc(C(=O)C2C(=O)CCCC2=O)c([N+](=O)[O-])c1 [mesotrione]
- Sensitivity of paddy rice variety to the herbicide [15]: show sensitivity

Compound: COc1cc(OC)nc(NC(=O)NS(=O)(=O)c2c(Cl)nc3ccccn23)n1 [Imazosulfuron, imazosulfuron]
- Growth inhibition rate, Lindernia procumbens (Lindernia procumbens [1]; Sowing into soil (depth 1 cm)): 10 (Growth inhibition rate of 91 to 100%)
- Growth inhibition rate, Lindernia procumbens (Lindernia procumbens [1]; Surface sowing): 10 (Growth inhibition rate of 91 to 100%)
- Growth inhibition rate, Monochoria vaginalis (Monochoria vaginalis [4]): 10 (Growth inhibition rate of 91 to 100%)
- Growth inhibition rate, Lindernia procumbens (Lindernia procumbens [5]): 10 (Growth inhibition rate of 91 to 100%)
- Growth inhibition rate, Scirpus juncoides Roxb. (Scirpus juncoides Roxb. [2]; Sowing into soil (depth 1 cm)): 9 (Growth inhibition rate of 82 to 90%)
- Growth inhibition rate, Scirpus juncoides Roxb. (Scirpus juncoides Roxb. [2]; Surface sowing): 10 (Growth inhibition rate of 91 to 100%)

Compound: Cc1cccc(C2CC2)c1Oc1nnc(Cl)cc1OC(=O)N1CCOCC1 [Compound (I), 6-chloro-3-(2-cyclopropyl-6-methylphenoxy)pyridazin-4-yl morpholin-4-carboxylate]
- Growth inhibition rate, Paddy rice ([17]; Sowing into soil (depth 1 cm)): 5 (Growth inhibition rate of 46 to 54%)
- Growth inhibition rate, Paddy rice ([17]; Surface sowing): 0 (Growth inhibition rate of 0 to 9%)
- Growth inhibition rate, Monochoria vaginalis (Monochoria vaginalis [18]; Sowing into soil (depth 1 cm)): 9 (Growth inhibition rate of 82 to 90%)
- Growth inhibition rate, Monochoria vaginalis (Monochoria vaginalis [18]; [20]): 10 (Growth inhibition rate of 91 to 100%)
- Growth inhibition rate, Lindernia procumbens (Lindernia procumbens [19]; Sowing into soil (depth 1 cm)): 8 (Growth inhibition rate of 73 to 81%)
- Growth inhibition rate, Lindernia procumbens (Lindernia procumbens [19]; [20]): 10 (Growth inhibition rate of 91 to 100%)
- Growth inhibition rate, Paddy rice [3]: 0 (Growth inhibition rate of 0 to 9%)
- Growth inhibition rate, Monochoria vaginalis (Monochoria vaginalis [4]): 10 (Growth inhibition rate of 91 to 100%)
- Growth inhibition rate, Lindernia procumbens (Lindernia procumbens [5]): 10 (Growth inhibition rate of 91 to 100%)
